Measurements from ChEMBL document CHEMBL1201862, “PubChem BioAssay data set” (2004).
The source made the active and inactive calls.

Assays:
[1] = system: Streptococcus sp. 'group A'; assay: Streptococcus pyogenes SK(-)GAS viability under kanamycin – luminescence, BacTiterGlo, confirmation, counter-screen for streptokinase expression inhibitor project, dose response (AID 1900); assay type: functional, organism-based
[2] = system: Streptococcus; assay: Luminescence Microorganism-Based Dose Response Follow up to Identify Compounds Cytotoxic to Streptococcus. [Related pubchem assays: 1677 (Project Summary), 1915, 1914, 1902 (Retest at Dose), 1900 (Counter Screen), 1662 (Primary HTS)]; assay type: functional, organism-based
[3] = target: T1, Streptokinase A (Streptococcus pyogenes serotype M1, UniProt P10520); assay: viability-normalized secreted streptokinase activity reduction – plasminogen activation absorbance, OD405, dose response (AID 1914); assay type: functional, Streptococcus pyogenes M1 GAS;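 further: secreted streptokinase activity via plasminogen activation per viability signal from cell pellet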
T1 sequence (P10520 whole entry): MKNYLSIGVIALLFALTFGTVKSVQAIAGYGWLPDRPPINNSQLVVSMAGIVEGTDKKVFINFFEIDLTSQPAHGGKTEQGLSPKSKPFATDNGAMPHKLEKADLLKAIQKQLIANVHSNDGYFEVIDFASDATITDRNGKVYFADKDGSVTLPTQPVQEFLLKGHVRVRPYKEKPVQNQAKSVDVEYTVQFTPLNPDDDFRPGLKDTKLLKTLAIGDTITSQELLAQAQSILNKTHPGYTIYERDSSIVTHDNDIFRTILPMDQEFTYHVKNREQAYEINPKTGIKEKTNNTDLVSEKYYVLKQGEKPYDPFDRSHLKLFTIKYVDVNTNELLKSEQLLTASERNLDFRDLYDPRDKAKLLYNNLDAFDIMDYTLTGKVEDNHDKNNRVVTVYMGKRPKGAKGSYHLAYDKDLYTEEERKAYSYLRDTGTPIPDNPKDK

[4] = system: Streptococcus; assay: GAS UMAA2166 growth inhibition – luminescence, BacTiterGlo, counter-screen for streptokinase expression inhibitor project, dose response (AID 1915); assay type: functional, organism-based;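 further: potency for reduction of bacterial viability or growth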
[5] = target: Cytochrome P450 2D6 (Homo sapiens, UniProt P10635); assay: qHTS Assay for Inhibitors and Substrates of Cytochrome P450 2D6. [Related pubchem assays: 410 ]; assay type: ADME; conditions: read-out: Potency
[6] = target: T2, Bcl-2-like protein 10 (Homo sapiens, UniProt Q9HD36); assay: Concentration-response of Bcl-B inhibitors by biochemical FP with TR3 (AID 1243); assay type: functional
T2 sequence (Q9HD36 whole entry): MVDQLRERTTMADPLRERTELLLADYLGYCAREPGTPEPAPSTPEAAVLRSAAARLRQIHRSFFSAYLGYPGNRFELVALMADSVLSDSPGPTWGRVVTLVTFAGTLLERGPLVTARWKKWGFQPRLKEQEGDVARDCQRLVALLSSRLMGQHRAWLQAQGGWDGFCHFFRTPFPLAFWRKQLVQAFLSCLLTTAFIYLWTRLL

[7] = target: Serine/threonine-protein phosphatase PP1-alpha catalytic subunit (Homo sapiens, UniProt P62136); assay: inhibition of protein phosphatase 1 activity – biochemical, fluorescence, dose response (AID 2403);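 further: phosphatase turnover of OMFP into fluorescent 3-O-methylfluorescein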
[8] = target: Serine/threonine-protein phosphatase (Homo sapiens, UniProt Q9BPW0); assay: Counterscreen for inhibitors of PP1: fluorescence-based biochemical high throughput dose response assay to identify inhibitors of Protein Phosphatase 5 (PP5). [Related pubchem assays: 2034 (Summary (PP5 inhibitors)), 1987 (PP5 inhibitors in singlate), 2235 (PP1 inhibitors in singlate)]
[9] = target: T3, Estrogen receptor (Homo sapiens, UniProt P03372);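 further: potency for inhibiting coactivator peptide recruitment to the receptor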
T3 sequence (P03372 whole entry): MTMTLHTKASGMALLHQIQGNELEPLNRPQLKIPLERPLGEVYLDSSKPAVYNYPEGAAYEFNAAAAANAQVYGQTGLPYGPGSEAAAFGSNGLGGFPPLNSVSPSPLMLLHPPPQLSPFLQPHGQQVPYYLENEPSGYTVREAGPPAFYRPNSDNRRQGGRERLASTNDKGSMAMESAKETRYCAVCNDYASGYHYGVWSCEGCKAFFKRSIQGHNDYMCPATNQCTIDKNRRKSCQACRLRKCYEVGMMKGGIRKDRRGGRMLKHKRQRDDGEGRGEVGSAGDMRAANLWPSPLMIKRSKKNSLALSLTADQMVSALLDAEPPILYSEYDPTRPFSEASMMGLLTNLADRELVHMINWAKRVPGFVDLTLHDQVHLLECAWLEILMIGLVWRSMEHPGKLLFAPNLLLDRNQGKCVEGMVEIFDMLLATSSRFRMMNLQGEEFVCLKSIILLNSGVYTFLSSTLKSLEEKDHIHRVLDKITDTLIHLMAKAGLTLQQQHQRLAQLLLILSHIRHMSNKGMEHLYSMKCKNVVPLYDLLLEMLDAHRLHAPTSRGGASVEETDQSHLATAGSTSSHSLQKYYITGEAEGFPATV

[10] = target: NS3 (Hepatitis C virus, UniProt A3EZJ3); assay: PubChem AID 2173; set-up: species or system Hepacivirus hominis
[11] = target: T4, Estrogen receptor beta (Homo sapiens, UniProt Q92731);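 further: recombinant ER-beta bound to coactivator SRC1 peptide in presence of estradiol agonist; inhibitors block coactivator peptide binding and lower the FRET signal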
[12] = target: T4, Estrogen receptor beta; assay: blockers of SRC-3 recruitment to ERβ – biochemical, ELISA, streptavidin-HRP readout, orthogonal assay, confirmation (AID 1060)
[13] = target: Induced myeloid leukemia cell differentiation protein Mcl-1 (Homo sapiens, UniProt Q07820); assay type: functional
[14] = target: T5, Neuropeptide Y receptor type 2 (Homo sapiens, UniProt P49146); assay: IC50 for human NPY-Y2 blockade – cell-based, counter-screen for NPY-Y1 antagonist project, dose response (AID 1278); assay type: functional
T5 sequence (P49146 whole entry): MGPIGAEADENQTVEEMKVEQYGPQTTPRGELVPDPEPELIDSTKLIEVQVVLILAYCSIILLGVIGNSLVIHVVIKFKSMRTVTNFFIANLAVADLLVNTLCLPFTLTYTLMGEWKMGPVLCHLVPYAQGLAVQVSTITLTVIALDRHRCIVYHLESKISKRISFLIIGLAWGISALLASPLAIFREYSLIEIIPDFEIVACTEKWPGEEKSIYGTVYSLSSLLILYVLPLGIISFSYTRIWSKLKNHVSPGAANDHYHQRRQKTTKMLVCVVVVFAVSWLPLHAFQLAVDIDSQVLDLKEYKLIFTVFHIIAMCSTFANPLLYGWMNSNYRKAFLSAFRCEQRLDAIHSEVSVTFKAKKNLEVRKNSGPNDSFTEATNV

[15] = target: T6, Neuropeptide Y receptor type 1 (Homo sapiens, UniProt P25929); assay: IC50 of human NPY-Y1 blockers – cell-based, dose response (AID 1277); assay type: functional
T6 sequence (P25929 whole entry): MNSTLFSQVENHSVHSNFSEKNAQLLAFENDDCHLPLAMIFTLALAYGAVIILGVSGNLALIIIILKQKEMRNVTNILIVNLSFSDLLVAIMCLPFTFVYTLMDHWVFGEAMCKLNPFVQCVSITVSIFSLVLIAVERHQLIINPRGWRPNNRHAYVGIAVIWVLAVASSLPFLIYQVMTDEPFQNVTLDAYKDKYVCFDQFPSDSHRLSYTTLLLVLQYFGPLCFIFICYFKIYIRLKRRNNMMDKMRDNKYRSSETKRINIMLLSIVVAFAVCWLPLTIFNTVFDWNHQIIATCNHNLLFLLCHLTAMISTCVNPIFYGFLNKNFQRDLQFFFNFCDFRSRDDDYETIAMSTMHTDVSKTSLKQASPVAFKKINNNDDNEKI

[16] = target: Epstein-Barr nuclear antigen 1 (Epstein-Barr virus (strain B95-8) (HHV-4) (Human herpesvirus 4), UniProt P03211); assay: inhibition of EBV nuclear antigen 1 DNA binding – biochemical, fluorescence polarization, 1536-well, dose response (AID 2381); set-up: species or system human gammaherpesvirus 4;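 further: fluorescence polarization of a Cy5 DNA probe bound by EBNA-1 protein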
[17] = target: Lytic switch protein BZLF1 (Epstein-Barr virus (strain B95-8) (HHV-4) (Human herpesvirus 4), UniProt P03206); assay: inhibition of BZLF1 ZTA DNA binding – biochemical, fluorescence polarization, Epstein-Barr virus, 1536-well, counter-screen for EBNA-1 inhibitor project, dose response (AID 2377); set-up: species or system human gammaherpesvirus 4;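 further: fluorescence polarization of Cy5-labelled ZRE DNA probe bound by purified Zta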
Sequence of Lytic switch protein BZLF1 (P03206 whole entry): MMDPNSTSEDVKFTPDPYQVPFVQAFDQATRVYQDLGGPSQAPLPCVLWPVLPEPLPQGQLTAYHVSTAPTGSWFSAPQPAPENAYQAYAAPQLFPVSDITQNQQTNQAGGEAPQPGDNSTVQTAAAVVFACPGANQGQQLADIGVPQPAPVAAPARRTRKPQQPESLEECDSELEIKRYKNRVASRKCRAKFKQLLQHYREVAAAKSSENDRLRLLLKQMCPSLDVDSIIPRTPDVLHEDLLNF

T4 sequence (Q92731 whole entry): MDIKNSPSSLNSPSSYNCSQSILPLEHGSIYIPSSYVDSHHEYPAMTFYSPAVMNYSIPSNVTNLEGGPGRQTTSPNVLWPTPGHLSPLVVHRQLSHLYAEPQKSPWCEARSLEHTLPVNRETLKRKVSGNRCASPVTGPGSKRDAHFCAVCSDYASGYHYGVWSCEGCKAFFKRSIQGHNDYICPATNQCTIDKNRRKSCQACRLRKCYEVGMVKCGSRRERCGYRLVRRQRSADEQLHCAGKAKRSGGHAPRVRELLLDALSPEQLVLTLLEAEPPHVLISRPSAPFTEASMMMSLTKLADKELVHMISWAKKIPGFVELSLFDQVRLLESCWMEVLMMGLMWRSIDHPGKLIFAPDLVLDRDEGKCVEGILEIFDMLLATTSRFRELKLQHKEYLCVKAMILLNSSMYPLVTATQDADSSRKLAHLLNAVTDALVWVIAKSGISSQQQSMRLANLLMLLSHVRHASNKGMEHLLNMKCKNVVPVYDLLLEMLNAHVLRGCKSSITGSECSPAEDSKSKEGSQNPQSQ
Sequence of Cytochrome P450 2D6 (P10635 whole entry): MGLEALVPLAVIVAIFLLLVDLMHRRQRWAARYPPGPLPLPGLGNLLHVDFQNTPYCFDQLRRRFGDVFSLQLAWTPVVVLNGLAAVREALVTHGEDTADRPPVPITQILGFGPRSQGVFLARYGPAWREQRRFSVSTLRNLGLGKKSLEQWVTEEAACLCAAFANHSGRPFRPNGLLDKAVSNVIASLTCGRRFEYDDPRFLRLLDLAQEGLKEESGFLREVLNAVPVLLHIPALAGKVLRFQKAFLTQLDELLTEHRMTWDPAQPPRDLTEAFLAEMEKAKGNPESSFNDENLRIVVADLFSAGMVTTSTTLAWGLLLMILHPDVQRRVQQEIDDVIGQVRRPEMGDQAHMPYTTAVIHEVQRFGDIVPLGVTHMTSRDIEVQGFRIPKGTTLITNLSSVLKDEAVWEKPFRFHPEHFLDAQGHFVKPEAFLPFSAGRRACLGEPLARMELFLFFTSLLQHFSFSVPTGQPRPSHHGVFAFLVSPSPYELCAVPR
Sequence of Induced myeloid leukemia cell differentiation protein Mcl-1 (Q07820 whole entry): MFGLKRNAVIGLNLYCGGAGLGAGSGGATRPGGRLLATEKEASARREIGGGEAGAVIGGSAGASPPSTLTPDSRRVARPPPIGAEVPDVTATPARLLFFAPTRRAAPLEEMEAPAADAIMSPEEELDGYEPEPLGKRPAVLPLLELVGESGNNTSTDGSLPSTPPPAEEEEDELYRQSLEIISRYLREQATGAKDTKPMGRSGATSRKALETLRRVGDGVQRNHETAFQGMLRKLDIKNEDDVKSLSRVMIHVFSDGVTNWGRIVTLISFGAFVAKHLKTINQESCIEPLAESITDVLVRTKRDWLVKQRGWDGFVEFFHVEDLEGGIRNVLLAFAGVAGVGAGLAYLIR
Sequence of Serine/threonine-protein phosphatase (Q9BPW0 whole entry): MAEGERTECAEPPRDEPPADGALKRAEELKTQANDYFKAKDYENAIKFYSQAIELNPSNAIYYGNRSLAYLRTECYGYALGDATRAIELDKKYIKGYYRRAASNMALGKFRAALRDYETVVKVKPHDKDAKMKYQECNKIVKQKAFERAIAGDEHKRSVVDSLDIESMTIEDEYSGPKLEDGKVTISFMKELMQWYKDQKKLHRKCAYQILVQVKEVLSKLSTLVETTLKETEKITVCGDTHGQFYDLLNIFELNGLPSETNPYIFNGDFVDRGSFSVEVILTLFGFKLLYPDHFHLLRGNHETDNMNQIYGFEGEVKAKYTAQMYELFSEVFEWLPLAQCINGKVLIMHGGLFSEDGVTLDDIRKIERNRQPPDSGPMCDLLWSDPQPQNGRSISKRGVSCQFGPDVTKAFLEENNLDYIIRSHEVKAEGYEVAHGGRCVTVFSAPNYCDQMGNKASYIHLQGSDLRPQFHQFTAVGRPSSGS
Sequence of Epstein-Barr nuclear antigen 1 (P03211 whole entry): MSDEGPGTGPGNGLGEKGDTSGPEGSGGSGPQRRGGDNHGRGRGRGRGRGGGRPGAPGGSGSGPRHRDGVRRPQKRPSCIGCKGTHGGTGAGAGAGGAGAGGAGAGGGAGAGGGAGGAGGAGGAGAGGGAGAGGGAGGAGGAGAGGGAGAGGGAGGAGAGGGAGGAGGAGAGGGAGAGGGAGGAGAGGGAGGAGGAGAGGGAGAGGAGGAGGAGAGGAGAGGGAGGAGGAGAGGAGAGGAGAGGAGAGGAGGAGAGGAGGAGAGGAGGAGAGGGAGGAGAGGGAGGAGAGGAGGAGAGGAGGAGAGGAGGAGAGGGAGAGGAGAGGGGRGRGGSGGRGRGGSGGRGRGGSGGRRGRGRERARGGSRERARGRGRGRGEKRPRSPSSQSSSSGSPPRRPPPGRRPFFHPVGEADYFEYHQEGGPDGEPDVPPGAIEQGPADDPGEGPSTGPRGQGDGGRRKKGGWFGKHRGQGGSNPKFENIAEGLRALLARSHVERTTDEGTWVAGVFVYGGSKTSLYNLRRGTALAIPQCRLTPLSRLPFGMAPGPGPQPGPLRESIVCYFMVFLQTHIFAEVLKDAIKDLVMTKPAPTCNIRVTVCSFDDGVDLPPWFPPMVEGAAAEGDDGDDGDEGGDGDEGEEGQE
Sequence of NS3 (A3EZJ3 whole entry): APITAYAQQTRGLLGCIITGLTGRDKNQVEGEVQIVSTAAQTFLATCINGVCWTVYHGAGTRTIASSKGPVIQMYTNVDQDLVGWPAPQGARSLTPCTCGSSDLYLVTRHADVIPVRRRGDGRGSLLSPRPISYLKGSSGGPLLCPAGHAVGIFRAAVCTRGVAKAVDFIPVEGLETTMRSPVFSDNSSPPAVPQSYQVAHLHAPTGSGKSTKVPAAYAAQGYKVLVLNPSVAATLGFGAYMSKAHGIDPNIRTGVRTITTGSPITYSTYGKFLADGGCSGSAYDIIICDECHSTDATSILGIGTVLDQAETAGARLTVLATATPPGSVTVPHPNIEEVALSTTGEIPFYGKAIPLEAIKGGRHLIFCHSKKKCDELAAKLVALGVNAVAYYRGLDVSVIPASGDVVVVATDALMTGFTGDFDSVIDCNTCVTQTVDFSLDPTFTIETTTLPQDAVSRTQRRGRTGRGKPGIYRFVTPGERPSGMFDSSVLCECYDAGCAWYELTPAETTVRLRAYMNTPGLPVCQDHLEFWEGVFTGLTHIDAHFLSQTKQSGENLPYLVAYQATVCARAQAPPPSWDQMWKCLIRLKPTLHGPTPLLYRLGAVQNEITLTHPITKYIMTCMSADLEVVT
Sequence of Serine/threonine-protein phosphatase PP1-alpha catalytic subunit (P62136 whole entry): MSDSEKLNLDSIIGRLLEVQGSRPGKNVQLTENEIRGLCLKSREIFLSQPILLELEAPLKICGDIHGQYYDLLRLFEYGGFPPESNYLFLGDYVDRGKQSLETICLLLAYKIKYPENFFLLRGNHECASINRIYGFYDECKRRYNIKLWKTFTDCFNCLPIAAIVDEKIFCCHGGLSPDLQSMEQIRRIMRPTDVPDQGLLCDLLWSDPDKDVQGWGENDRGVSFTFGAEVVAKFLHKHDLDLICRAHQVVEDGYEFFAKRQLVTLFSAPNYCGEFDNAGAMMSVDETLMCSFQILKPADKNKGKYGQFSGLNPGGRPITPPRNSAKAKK

In the case of COc1ccc(Nc2ncnc3scc(-c4ccc(OC)cc4)c23)cc1, the EC50 [1] is reported as 122 µM (active), the EC50 [2] is reported as > 500 µM (not active) and the EC50 [3] is reported as 10.5 µM (active). The EC50 [4] was > 150 µM (not active).

COC1=C[C@H]2[C@@H]3Cc4ccc(OC)c(O)c4[C@@]2(CCN3C)CC1=O was tested, and the AC50 [5] was 20 µM (inconclusive).

In the case of O=C(O)C1Nc2c(cccc2[N+](=O)[O-])C2C=CCC12 (stereo not given), the EC50 [6] is reported as 1.2 µM (active).

With O=S(=O)(Cc1cc(NCc2ccccc2)nc(-c2ccccn2)n1)c1ccccc1 the EC50 [1] was 21 µM (active), the IC50 [7] was 7.88 µM (active) and the EC50 [3] was > 150 µM (not active). For the same compound, the IC50 [8] was > 67 µM (not active) and the EC50 [4] was > 150 µM (not active).

C=CCSC1=N/C(=C\C=C\c2ccco2)C(=O)S1 was tested, and the IC50 [9] was > 50 µM (not active), the IC50 [10] was 11 µM (not active) and the IC50 [11] was 10.3 µM (active). The IC50 [12] was > 50 µM (not active) and the IC50 [13] was 5.61 µM (active).

For COc1ccccc1CN(Cc1cc2cc(C)ccc2nc1O)Cc1nnnn1Cc1ccco1, the IC50 [14] was > 35 µM (not active) and the IC50 [15] was 22.7 µM (not active).

N#Cc1ccc(N2Cc3ccccc3/C2=N/C(=O)Nc2ccc(Cl)cc2)cc1 was tested, and the IC50 [16] was 8.14 µM (active) and the IC50 [17] was > 111 µM (not active).
